In data set [1] the target is T1, FAK (focal adhesion kinase) (Homo sapiens, UniProt Q05397).
T1 construct: endogenous in cells; host or cells: Calu-6 or HT-29
Put plainly: Inhibition of FAK (ELISA assay), FAK phosphorylation in cells. The following applies: human cells with FAK amplification. Type of data set: cell-based. As to the method:
Activated FAK promotes the invasive growth of tumour cells and inhibits anoikis.
The amount of phosphorylated FAK is determined by a specific capture ELISA or an analogous LUMINEX assay. FAK from cell lysates is bound to a 96-well ELISA plate or LUMINEX beads by means of a specific antibody (“capturing”), and the tyrosine phosphorylation is detected using a biotin-labelled anti-phosphotyrosine antibody and a streptavidin-peroxidase conjugate by a chemiluminescence method or by means of a fluorescence-labelled anti-phosphotyrosine antibody.
For determination of the activity of kinase inhibitors, cells are pretreated with increasing concentrations of these compounds for 45 min, and the FAK phosphorylation is then determined. As internal control, a concentration series of a reference inhibitor is measured.

Another data set addresses T2, TGFβR1 (Homo sapiens, UniProt P36897).
T2 sequence (P36897 34-503): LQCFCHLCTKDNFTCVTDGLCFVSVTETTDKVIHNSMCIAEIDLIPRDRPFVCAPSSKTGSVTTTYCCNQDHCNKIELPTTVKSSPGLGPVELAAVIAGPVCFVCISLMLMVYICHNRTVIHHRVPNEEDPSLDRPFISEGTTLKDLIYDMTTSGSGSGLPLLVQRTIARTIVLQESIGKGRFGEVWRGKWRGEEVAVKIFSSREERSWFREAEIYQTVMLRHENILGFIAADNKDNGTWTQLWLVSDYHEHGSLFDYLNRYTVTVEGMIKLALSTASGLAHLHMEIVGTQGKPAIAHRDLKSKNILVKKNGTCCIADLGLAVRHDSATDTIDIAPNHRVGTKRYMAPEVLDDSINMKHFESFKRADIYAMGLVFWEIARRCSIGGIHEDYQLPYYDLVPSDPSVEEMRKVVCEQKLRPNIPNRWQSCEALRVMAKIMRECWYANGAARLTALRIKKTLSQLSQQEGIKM
Nature of the data set: Inhibition of TGFβR1 (flashplate assay). Type of data set: biochemical. The following applies: flashplate method. Here is the method: The test is carried out as described in Example B1b for IGF1R. A biotinylated is added to the TGFβR1 kinase.
The kinase assay is carried out as a 384-well flashplate assay.
The components of the kinase reaction are pipetted into the assay plate. The TGFβR1 kinase is incubated for 45 min with radioactively labelled ^33P-ATP in the presence and absence of test substances together with biotinylated substrate in a total volume of 35 μl. The reaction is terminated using 25 μl of 200 mM EDTA solution, removed by suction after 30 min at room temperature, and the wells are washed with three times with 100 μl of 0.9% NaCl solution each time. The radioactivity is measured using a Topcount scintillation counter (PerkinElmer, USA). IC50 values are calculated using the RS1 computer program.

For a further data set, the target named is T3, IGF1 receptor (IGF1R) (Homo sapiens, UniProt P08069).
T3 construct: endogenous in cells; host or cells: MCF-7 or Calu-6
Put plainly: Inhibition of IGF1R (ELISA assay), IGF1-stimulated autophosphorylation in cells. The following applies: human tumour cells stimulated with IGF1, read-out: IC50 IGF (ELISA). Format: cell-based. As to the method: The stimulation induces an autophosphorylation of tyrosine residues in the cytoplasmatic IGF1R domain, which triggers signal transduction cascades, which result in inhibition of apoptosis and proliferation of the cells.
The amount of phosphorylated IGF1R is determined by a receptor-specific capture ELISA or an analogous LUMINEX assay. The IGF1R from cell lysates is bound to a 96-well ELISA plate or LUMINEX beads by means of a specific antibody (“capturing”), and the tyrosine phosphorylation is detected using a biotin-labelled anti-phosphotyrosine antibody and a streptavidin-peroxidase conjugate by a chemiluminescence method or by means of a fluorescence-labelled anti-phosphotyrosine antibody.
For determination of the activity of kinase inhibitors, cells are pretreated with increasing concentrations of these compounds for 45 min and subsequently stimulated using IGF1 for 5 min. As internal control, the biological activity of the ligand IGF1 is checked, and a concentration series of an IGF1R reference inhibitor is measured.

In a further data set the target is VEGF-2 (Homo sapiens, UniProt P35968). Nature of the data set: Inhibition of VEGF-2 (flashplate assay). Type of data set: biochemical. The following applies: flashplate method. As to the method:
(§1) The test plates used are 384-well flashplate microtitre plates from Perkin Elmer (USA). The components of the kinase reaction are pipetted into the assay plate. The VEGF-2 kinase is incubated for 3 hr. with radioactively labelled ^33P-ATP in the presence and absence of test substances in a total volume of 100 μl at room temperature together with biotinylated poly(Glu, Tyr)4:1. The reaction is terminated using 25 μl of a 200 mM EDTA solution. After incubation for a further 30 min at room temperature, the supernatants are removed by suction, and the wells are washed three times with 100 μl of 0.9% NaCl solution each time. The radioactivity is measured using a Topcount scintillation counter (PerkinElmer, USA). IC50 values are calculated using the RS1 computer program.

A further data set deals with TIE2 (Homo sapiens, UniProt Q02763). Put plainly: Inhibition of TIE2 (flashplate assay). Type of data set: biochemical. The following applies: flashplate method. Here is the method:
B4: inhibition of T1E2 (Flashplate Assay)
as §1, with “TIE2” for “VEGF-2”

For the next data set, the target named is PDGFRβ (Homo sapiens, UniProt P09619). Put plainly: Inhibition of PDGFRβ (flashplate assay). The following applies: flashplate method. Format: biochemical. As to the method: as §1, with “are 96-well” for “are 384-well”, “The PDGFRβ” for “The VEGF-2”, “temperature (here autophosphorylation of the kinase).” for “temperature together with biotinylated poly(Glu, Tyr)4:1.”, “using 150” for “using 25”, “a 60” for “a 200”, “with 200” for “with 100”

The structures appear in SMILES notation. Where a name gives a salt, the structure may show the parent alone. A value given as a limit tells only on which side of the number the result lay.

T1 sequence (Q05397 whole entry): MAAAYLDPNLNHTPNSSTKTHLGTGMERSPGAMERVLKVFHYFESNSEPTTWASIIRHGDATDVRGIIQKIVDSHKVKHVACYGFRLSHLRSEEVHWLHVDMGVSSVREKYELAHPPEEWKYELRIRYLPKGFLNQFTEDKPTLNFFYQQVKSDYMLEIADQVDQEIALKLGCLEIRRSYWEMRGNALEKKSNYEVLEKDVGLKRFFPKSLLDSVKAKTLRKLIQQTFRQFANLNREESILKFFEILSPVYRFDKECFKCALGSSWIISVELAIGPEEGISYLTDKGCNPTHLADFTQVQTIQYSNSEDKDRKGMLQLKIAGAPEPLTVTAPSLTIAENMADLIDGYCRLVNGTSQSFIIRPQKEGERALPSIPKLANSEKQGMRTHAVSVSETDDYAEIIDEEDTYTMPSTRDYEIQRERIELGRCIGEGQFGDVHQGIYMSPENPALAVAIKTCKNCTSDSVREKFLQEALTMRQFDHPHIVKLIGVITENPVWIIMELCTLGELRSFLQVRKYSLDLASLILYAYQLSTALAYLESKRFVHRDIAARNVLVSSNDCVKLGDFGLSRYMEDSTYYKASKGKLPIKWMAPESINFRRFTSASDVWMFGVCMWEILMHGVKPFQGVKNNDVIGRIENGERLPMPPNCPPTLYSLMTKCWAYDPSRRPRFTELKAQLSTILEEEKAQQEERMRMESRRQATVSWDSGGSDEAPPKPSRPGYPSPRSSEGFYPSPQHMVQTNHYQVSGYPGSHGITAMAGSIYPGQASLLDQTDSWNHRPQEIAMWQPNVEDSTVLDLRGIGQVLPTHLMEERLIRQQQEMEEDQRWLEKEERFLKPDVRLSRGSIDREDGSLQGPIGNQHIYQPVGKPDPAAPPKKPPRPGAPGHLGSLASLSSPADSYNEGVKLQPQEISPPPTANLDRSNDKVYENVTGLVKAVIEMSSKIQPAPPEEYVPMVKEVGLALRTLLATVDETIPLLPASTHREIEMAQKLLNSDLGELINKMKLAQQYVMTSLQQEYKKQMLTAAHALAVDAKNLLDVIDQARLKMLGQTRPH
TIE2, sequence (Q02763 23-1124, species assumed): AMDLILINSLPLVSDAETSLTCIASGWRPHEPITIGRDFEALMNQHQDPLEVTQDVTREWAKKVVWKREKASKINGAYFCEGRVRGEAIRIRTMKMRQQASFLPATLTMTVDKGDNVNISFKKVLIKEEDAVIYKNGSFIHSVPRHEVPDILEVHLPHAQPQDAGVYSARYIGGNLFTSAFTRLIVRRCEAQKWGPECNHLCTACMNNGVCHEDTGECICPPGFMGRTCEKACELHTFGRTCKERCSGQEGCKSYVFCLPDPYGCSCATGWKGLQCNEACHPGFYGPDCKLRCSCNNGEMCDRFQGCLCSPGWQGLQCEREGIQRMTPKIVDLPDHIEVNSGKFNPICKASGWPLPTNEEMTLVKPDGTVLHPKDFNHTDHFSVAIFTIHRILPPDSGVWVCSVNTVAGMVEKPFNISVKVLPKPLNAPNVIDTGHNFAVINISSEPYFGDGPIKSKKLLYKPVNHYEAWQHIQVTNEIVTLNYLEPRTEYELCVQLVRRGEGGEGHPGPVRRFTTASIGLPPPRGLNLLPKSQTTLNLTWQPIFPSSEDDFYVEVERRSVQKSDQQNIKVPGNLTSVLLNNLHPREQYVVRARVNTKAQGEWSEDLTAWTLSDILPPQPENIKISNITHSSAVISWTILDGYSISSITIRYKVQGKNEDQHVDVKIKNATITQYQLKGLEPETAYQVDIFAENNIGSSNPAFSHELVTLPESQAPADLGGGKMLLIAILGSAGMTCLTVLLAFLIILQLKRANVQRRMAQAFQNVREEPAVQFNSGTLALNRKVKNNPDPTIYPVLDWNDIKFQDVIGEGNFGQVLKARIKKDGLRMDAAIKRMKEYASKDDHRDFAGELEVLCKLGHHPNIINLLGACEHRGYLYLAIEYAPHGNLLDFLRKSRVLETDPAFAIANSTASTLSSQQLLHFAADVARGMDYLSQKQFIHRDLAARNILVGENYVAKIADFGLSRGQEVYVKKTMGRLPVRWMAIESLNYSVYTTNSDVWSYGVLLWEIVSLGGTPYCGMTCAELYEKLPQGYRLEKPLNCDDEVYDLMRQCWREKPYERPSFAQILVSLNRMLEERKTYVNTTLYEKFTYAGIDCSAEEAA
PDGFRβ, sequence (P09619 33-1106, species assumed): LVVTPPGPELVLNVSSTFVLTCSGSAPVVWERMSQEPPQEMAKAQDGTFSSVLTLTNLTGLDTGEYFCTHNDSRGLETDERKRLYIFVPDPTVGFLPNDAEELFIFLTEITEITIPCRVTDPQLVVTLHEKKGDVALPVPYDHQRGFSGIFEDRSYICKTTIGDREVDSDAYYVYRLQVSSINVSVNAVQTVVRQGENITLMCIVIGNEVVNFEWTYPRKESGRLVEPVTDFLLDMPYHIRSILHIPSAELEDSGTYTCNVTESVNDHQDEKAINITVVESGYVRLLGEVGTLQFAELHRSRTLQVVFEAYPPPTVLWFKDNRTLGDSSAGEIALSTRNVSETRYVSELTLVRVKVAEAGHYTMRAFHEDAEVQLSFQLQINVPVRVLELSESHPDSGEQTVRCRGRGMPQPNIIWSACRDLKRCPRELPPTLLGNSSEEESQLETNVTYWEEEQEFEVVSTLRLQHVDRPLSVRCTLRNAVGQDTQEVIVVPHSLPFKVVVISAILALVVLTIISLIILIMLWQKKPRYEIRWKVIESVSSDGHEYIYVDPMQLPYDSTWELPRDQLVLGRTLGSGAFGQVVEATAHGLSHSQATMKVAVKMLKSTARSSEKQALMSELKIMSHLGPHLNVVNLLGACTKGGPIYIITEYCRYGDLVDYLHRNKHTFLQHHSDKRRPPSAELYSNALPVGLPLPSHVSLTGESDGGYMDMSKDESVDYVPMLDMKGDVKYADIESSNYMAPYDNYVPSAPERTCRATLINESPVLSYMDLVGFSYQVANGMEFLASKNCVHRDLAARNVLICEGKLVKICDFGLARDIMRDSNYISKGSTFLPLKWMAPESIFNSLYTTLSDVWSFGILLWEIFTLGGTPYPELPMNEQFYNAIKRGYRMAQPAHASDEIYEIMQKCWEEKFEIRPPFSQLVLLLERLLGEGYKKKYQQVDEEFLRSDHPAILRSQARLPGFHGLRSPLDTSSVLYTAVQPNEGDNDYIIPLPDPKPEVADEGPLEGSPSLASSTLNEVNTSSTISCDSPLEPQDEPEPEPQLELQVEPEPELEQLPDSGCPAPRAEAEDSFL
VEGF-2, sequence (P35968 20-1356): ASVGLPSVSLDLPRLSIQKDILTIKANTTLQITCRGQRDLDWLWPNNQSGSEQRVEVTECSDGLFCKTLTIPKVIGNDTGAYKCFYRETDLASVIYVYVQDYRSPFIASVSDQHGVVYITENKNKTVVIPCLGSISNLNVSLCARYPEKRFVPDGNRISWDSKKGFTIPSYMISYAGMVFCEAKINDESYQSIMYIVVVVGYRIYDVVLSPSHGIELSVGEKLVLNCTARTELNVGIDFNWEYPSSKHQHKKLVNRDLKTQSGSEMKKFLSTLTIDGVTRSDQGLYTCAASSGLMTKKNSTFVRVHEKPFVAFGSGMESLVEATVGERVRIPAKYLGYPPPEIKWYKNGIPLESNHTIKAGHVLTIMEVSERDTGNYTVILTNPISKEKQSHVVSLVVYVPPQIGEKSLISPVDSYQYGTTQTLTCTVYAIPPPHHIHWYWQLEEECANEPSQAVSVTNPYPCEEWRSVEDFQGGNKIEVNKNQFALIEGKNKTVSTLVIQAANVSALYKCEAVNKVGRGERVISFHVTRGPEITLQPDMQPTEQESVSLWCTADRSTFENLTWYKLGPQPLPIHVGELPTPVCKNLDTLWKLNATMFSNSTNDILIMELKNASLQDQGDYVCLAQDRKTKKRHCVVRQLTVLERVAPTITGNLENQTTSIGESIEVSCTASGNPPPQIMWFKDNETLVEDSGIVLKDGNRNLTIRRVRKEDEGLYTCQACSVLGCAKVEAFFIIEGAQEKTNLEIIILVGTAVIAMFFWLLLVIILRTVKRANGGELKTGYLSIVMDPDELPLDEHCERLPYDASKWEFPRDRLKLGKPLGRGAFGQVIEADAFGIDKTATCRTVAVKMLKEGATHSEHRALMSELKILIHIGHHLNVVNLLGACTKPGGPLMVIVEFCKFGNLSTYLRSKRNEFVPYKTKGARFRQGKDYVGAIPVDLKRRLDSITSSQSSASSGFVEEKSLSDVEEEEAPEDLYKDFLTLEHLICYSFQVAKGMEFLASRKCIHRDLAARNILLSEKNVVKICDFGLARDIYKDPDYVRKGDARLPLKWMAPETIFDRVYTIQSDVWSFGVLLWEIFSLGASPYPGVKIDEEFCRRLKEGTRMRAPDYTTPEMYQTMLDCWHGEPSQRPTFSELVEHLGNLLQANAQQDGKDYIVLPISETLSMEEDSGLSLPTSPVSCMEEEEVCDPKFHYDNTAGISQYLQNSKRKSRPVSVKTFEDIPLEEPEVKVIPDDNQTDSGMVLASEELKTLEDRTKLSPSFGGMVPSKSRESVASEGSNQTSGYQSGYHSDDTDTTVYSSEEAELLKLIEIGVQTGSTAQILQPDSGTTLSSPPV

The molecule `NCC1CC(n2cc(-c3cccc([N+](=O)[O-])c3)c3c(N)ncnc32)C1` (stereo not shown) [Compound 20] displayed a melting point of 53 to 55 °C. The molecule further displayed an IC50 in data set [1] of 4 µM. The molecule also had an IC50 at TGFβR1 of 0.7 µM.
Molecule `CN(Cc1ccccc1)c1cccc(-c2cn(C3CC(CN)C3)c3ncnc(N)c23)c1` (stereo not shown) [Compound 26] yielded a melting point of 197 to 200 °C. The IC50 on IGF1 receptor (IGF1R) worked out at 11 µM. Moreover, half-maximal inhibition against VEGF-2 (IC50) required 2.7 µM. On TGFβR1, 1.1 µM corresponded to half-maximal inhibition (IC50).
On to `NCC1CC(n2cc(-c3cccnc3)c3c(N)ncnc32)C1` (stereo not shown) [Compound 44], for which the IC50 at IGF1 receptor (IGF1R) worked out at 13 µM; against TGFβR1 it was 0.95 µM.
Turning to `NCC1CC(n2cc(-c3cccc(C(F)(F)F)c3)c3c(N)ncnc32)C1` (stereo not shown) [Compound 17], the figures for the IC50 (in data set [1]; against TGFβR1) were 25 µM and 2.7 µM, respectively.
`NCC1CC(n2cc(-c3cccc(N(CCCCO)Cc4ccccc4)c3)c3c(N)ncnc32)C1` (stereo not shown) [Compound 61]: on TIE2, the concentration for half-maximal inhibition (IC50) was 3.9 µM.
As for `NCC1CC(n2cc(-c3cccc4occc34)c3c(N)ncnc32)C1` (stereo not shown) [Compound 65], the IC50 in data set [1] is 0.42 µM; against VEGF-2, 1.32 µM; on TIE2, 2.9 µM; against PDGFRβ it was 0.94 µM; at TGFβR1, 0.045 µM.
With `NCC1CC(n2cc(-c3ccc4c(c3)n(Cc3ccccc3)c(=O)n4Cc3ccccc3)c3c(N)ncnc32)C1` (stereo not shown) [Compound 33], the melting point lay in the range of 72.5 to 74 °C. Besides, on IGF1 receptor (IGF1R), the IC50 was 20 µM. For the same molecule, in data set [1], the IC50 amounted to 27 µM. In addition, the IC50 on TIE2 is 0.37 µM. Moreover, inhibition against PDGFRβ was half-maximal at 6.85 µM (IC50).
As for `NCC1CC(n2cc(-c3ccco3)c3c(N)ncnc32)C1` (stereo not shown) (as salt: TFA) [Compound 38], the melting point lay within 207.5 to 209 °C.
Regarding `N#Cc1ccc(-c2cn(C3CC(CN)C3)c3ncnc(N)c23)cc1F` (stereo not shown) [Compound 59], the IC50 was 4.1 µM in data set [1], 0.62 µM against PDGFRβ and 8.3 µM against TGFβR1.
`N#Cc1cccc(-c2cn(C3CC(CN)C3)c3ncnc(N)c23)c1` (stereo not shown) (as salt: TFA) [Compound 57]: the melting point lay within 186.5 to 189 °C.
In the case of `C[Si](C)(C)COc1cccc(-c2cn(C3CC(CN)C3)c3ncnc(N)c23)c1` (stereo not shown) (as salt: TFA) [Compound 9], the melting point was in the range of 83 to 84 °C.
Take `Nc1ncnc2c1c(-c1ccc3c(c1)OCCO3)cn2C1CC(CN2CCCC2)C1` (stereo not shown) [Compound 54]: the IC50 in data set [1] stood at 28 µM.
For the molecule `N#Cc1ccc(-c2cn(C3CC(CN)C3)c3ncnc(N)c23)cc1N` (stereo not shown) [Compound 58], the IC50 against VEGF-2 is 0.61 µM; against PDGFRβ, 0.43 µM; against TGFβR1, 1.1 µM.
For the molecule `NCC1CC(n2cc(C(Cl)=CCOCc3ccccc3)c3c(N)ncnc32)C1` (stereo not shown) [Compound 71], the concentration for half-maximal inhibition (IC50) worked out at 21 µM at IGF1 receptor (IGF1R) and 5.5 µM at TGFβR1.
`NCC1CC(n2cc(-c3ccc4occc4c3)c3c(N)ncnc32)C1` (stereo not shown) [Compound 63] came in with a melting point of 156 to 159 °C. In addition, in data set [1], inhibition was half-maximal at 0.63 µM (IC50). This molecule also showed an IC50 against VEGF-2 of 0.29 µM. The same molecule yielded an IC50 at TIE2 of 1.8 µM. The molecule further gave an IC50 on PDGFRβ of 0.31 µM. This molecule showed an IC50 against TGFβR1 of 0.055 µM.
Molecule `NCC1CC(n2cc(-c3cccc(C(N)=O)c3)c3c(N)ncnc32)C1` (stereo not shown) [Compound 60] showed an IC50 against TGFβR1 of 0.53 µM.
In turn, `NCC1CC(n2cc(-c3cccc(OC(F)(F)F)c3)c3c(N)ncnc32)C1` (stereo not shown) [Compound 18] gave a melting point of 88 to 90 °C. Besides, the IC50 at IGF1 receptor (IGF1R) is 22 µM. The molecule further had an IC50 in data set [1] of 17.5 µM. The molecule further gave an IC50 at TGFβR1 of 1 µM.
Regarding `CC(C)c1cccc(-c2cn(C3CC(CN)C3)c3ncnc(N)c23)c1` (stereo not shown) [Compound 16], the melting point is 93 to 94.5 °C. For the same molecule, the concentration for half-maximal inhibition (IC50) at IGF1 receptor (IGF1R) was 22 µM. In data set [1], this molecule yielded an IC50 of 28.5 µM. The molecule also displayed an IC50 on TGFβR1 of 1.5 µM.
On to `CS(=O)(=O)Nc1cccc(-c2cn(C3CC(CN)C3)c3ncnc(N)c23)c1` (stereo not shown) [Compound 13], for which the melting point lay in the range of 82 to 84 °C. The molecule further returned a half-inhibitory concentration (IC50) in data set [1] of 28 µM. Moreover, on VEGF-2, 6.5 µM corresponded to half-maximal inhibition (IC50). For the same molecule, the IC50 on PDGFRβ turned out to be 5.8 µM.
As for `NCC1CC(n2cc(-c3cnc4ccccc4c3)c3c(N)ncnc32)C1` (stereo not shown) [Compound 69], the IC50 on IGF1 receptor (IGF1R) was determined as 25 µM; in data set [1] it was 8 µM; on TGFβR1, 0.039 µM.
`NCC1CC(n2cc(-c3cccs3)c3c(N)ncnc32)C1` (stereo not shown) (as salt: TFA) [Compound 41]: the melting point fell in the range of 206 to 207.5 °C.
On the same count and under the same terms, for `NCC1CC(n2cc(-c3ccncc3)c3c(N)ncnc32)C1` (stereo not shown) (as salt: TFA) [Compound 43] the value was > 195 °C (dec.); for `NCC1CC(n2cc(-c3cc4ccccc4o3)c3c(N)ncnc32)C1` (stereo not shown) (as salt: TFA) [Compound 37], 202.5 to 204.5 °C.
For the molecule `CC(=O)Nc1cccc(-c2cn(C3CC(CN)C3)c3ncnc(N)c23)c1` (stereo not shown) [Compound 21], the IC50 in data set [1] is 17 µM; at TGFβR1, 6.5 µM.
`NCC1CC(n2cc(I)c3c(N)ncnc32)C1` (stereo not shown) (as salt: HCl) [Compound 52] displayed a melting point of 241 to 242.5 °C.
Take `NCC1CC(n2cc(-c3ccncc3)c3c(N)ncnc32)C1` (stereo not shown) [Compound 43]: the concentration for half-maximal inhibition (IC50) on IGF1 receptor (IGF1R) was 27 µM; at TGFβR1 it was 0.15 µM.
Regarding `N#Cc1cccc(-c2cn(C3CC(CN)C3)c3ncnc(N)c23)c1` (stereo not shown) [Compound 57], the IC50 in data set [1] was determined as 25 µM; at TGFβR1, 6.1 µM.
Molecule `C[Si](C)(COc1cccc(-c2cn(C3CC(CN)C3)c3ncnc(N)c23)c1)c1ccccc1` (stereo not shown) (as salt: TFA) [Compound 8] had a melting point of 172 to 174.5 °C.
